Measured values from US6448405B1, “Steroid receptor modulator compounds and methods” (Ligand Pharmaceuticals Incorporated, priority 1994, dated 2002).
pEC50, pIC50, pKi: −log10 of the molar value. Where two headings read alike, the source gives them in different places.

Key:
[1] = target: T1, human glucocorticoid receptor (GR) (Homo sapiens, UniProt P04150); test: Co-transfection assay, GR antagonist activity, CV-1 cells (pRShGR); format: cell-based; conditions: antagonist mode; for GR Antagonist CV-1 Cells Efficacy (%): % maximal inhibition; for pIC50: IC50, read-out: GR Antagonist CV-1 Cells Potency
T1 construct: expressed in transfected cells; host or cells: CV-1 cells, transient transfection
T1 sequence (P04150 1-777): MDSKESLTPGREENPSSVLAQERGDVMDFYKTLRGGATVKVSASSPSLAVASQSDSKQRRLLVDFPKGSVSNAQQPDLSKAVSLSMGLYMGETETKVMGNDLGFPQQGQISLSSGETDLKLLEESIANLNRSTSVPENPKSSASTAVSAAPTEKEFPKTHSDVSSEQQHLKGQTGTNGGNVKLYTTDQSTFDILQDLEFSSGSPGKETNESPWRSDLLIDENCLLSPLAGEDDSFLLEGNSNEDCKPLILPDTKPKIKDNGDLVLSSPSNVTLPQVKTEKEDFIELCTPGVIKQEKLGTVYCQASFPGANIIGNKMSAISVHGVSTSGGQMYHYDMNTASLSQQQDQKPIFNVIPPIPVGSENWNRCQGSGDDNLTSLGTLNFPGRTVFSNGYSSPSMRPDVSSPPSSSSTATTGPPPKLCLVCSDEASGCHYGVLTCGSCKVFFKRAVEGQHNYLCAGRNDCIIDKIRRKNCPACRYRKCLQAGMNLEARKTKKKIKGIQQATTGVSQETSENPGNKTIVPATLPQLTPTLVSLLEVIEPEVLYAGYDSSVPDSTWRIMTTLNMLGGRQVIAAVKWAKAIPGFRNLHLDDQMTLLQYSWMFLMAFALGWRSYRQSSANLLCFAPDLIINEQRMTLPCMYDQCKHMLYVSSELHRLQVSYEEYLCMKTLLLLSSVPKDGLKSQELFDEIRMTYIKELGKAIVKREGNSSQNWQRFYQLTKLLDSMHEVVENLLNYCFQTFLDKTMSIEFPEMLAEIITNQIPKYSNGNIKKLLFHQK

[2] = target: T2, human glucocorticoid receptor alpha (GRα) (Homo sapiens, UniProt P04150); test: GR binding assay, baculovirus extract, [3H] dexamethasone; conditions: competition with [3H] dexamethasone, 4° C., 16 hours; read-out: GR Binding K1
T2 construct: made in house; crude extract used
T2 sequence (P04150 1-777): T1 sequence (P04150 1-777)

[3] = target: T3, human mineralocorticoid receptor (MR) (Homo sapiens, UniProt P08235); test: Co-transfection assay, MR antagonist activity, CV-1 cells (pRShMR); format: cell-based; conditions: antagonist mode; for MR Antagonist CV-1 Cells Efficacy (%): % maximal inhibition; for pIC50: IC50, read-out: MR Antagonist CV-1 Cells Potency
T3 construct: expressed in transfected cells; host or cells: CV-1 cells, transient transfection
T3 sequence (P08235 1-984): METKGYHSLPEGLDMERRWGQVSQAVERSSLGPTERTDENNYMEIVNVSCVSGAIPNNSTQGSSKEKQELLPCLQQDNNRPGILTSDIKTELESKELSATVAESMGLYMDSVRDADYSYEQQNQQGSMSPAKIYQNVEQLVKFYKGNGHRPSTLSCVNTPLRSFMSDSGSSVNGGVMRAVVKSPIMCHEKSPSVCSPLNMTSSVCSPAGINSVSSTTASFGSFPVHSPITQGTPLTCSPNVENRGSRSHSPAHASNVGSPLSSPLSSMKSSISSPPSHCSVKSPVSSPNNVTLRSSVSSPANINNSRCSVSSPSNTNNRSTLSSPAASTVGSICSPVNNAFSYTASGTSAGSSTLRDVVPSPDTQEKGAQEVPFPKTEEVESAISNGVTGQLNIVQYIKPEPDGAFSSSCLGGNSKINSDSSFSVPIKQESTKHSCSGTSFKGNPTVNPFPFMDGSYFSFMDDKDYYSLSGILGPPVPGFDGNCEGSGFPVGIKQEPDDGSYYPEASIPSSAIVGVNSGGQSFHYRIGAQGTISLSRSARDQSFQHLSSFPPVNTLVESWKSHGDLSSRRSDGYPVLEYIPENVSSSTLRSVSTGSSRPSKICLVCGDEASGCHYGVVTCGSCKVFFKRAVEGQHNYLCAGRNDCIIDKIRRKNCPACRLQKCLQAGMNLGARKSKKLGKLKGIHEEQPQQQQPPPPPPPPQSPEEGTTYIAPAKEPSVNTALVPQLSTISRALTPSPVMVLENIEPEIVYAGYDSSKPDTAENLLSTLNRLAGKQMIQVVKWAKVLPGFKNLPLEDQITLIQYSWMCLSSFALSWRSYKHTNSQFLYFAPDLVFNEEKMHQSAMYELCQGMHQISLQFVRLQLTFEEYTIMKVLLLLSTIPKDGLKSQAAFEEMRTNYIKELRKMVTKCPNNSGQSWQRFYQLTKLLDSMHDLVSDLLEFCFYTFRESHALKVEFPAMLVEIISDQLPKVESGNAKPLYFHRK

[4] = tested on: ventral prostates (VP) and seminal vesicles (SV) of immature castrated rats; test: Immature castrated male rat model (antiandrogen activity); format: in vivo; conditions: co-administered with 0.1 mg of TP
Description: Since the male sex organs are the tissues most responsive to modulation of androgen activity, this model is used to determine the androgen-dependent growth of the sex accessory organs in immature castrated rats.
Five days after surgery, animals groups were dosed for 3 days as follows:
At the end of the 3-day treatment, the animals were sacrificed, and the ventral prostates (VP) and seminal vesicles (SV) were collected and weighed. To compare data from different experiments, the sexual organ weights were first standardized as mg per 100 g of body weight, and the increase in organ weight induced by TP was considered as the maximum increase (100%). Super-anova (one factor) was used for statistical analysis.
The gain and loss of sexual organ weights reflect the changes of cell number (DNA content) and cell mass (protein content), depending upon the serum androgen concentration. […] Therefore, measurement of organ wet weights is sufficient to indicate the bioactivity of androgens and androgen antagonists.

[5] = target: T4, human androgen receptor (AR) (Homo sapiens, UniProt P10275); test: Co-transfection assay, AR agonist and antagonist activity, CV-1 cells (pRShAR); format: cell-based; conditions: for AR Agonist CV-1 Cells Efficacy (%): relative to DHT; for AR Antagonist CV-1 Cells Efficacy (%): antagonist mode, % maximal inhibition
T4 construct: expressed in transfected cells; host or cells: CV-1 cells, transient transfection
T4 sequence (P10275 1-920): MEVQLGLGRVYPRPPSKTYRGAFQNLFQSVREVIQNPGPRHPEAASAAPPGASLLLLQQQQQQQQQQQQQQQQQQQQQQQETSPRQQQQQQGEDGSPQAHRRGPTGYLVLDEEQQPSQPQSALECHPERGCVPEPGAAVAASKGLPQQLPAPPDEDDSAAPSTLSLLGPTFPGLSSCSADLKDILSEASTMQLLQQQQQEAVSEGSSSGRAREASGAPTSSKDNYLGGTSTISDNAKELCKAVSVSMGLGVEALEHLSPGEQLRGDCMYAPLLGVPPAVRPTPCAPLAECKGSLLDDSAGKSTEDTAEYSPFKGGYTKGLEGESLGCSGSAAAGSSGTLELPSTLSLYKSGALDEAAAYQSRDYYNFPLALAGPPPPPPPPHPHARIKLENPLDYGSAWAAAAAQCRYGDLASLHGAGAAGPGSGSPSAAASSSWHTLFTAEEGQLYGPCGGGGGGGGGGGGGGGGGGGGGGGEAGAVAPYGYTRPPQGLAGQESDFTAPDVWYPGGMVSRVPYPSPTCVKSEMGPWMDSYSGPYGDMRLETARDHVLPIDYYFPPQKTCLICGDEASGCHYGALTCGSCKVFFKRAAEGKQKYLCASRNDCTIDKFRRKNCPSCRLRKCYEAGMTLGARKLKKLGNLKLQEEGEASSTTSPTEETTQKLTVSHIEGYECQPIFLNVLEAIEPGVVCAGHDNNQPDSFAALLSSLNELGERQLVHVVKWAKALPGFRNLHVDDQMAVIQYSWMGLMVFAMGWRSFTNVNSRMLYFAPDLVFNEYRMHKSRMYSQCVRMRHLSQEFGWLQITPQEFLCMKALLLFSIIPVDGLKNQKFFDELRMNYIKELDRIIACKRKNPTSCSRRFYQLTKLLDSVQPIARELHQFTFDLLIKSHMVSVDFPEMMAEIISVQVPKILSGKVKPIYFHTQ

[6] = target: T5, human AR (Homo sapiens, UniProt P10275); test: AR whole cell binding assay, transfected COS-1 cells, 3H-DHT
T5 construct: expressed in transfected cells; host or cells: COS-1 cells, transient transfection
T5 sequence (P10275 1-920): T4 sequence (P10275 1-920)

[7] = read-out: AR Agonist CV-1 Cells Potency, Table 2, agonist mode, EC50

Compound: CC1=CC(C)(C)Nc2ccc3c(c21)C(c1ccc(C)cc1)Oc1ccccc1-3 (racemic) [Compound 167, (R/S)-1,2-Dihydro-2,2,4-trimethyl-5-(4-Methylphenyl)-5H-chromeno[3,4-f]quinoline]
- GR Antagonist CV-1 Cells Efficacy (%) ([1]; Table 4): 96%
- GR Antagonist CV-1 Cells Efficacy (%) ([1]; dexamethasone at its EC50): 96%
- pIC50 ([1]; dexamethasone at its EC50): 6.07
- pKi [2]: 7.68
- MR Antagonist CV-1 Cells Efficacy (%) ([3]; Table 4): 61%
- MR Antagonist CV-1 Cells Efficacy (%) ([3]; aldosterone at its EC50): 61%
- pIC50 ([3]; aldosterone at its EC50): 5.70

Compound: CC1=CC(C)(C)Nc2ccc3c(c21)C(c1ccsc1)Oc1ccccc1-3 (racemic) [Compound 170, (R/S)-1,2-Dihydro-2,2,4-trimethyl-5-(thiophen-3-yl)-5H-chromeno[3,4-f]quinoline]
- GR Antagonist CV-1 Cells Efficacy (%) ([1]; Table 4): 94%
- pIC50 ([1]; dexamethasone at its EC50): 5.81
- pKi [2]: 7.33
- MR Antagonist CV-1 Cells Efficacy (%) ([3]; Table 4): 84%
- pIC50 ([3]; aldosterone at its EC50): 6.39

Compound: C=C1CC(C)(C)Nc2ccc3c(c21)C(c1cccc(F)c1)Oc1ccccc1-3 (racemic) [Compound 192, (R/S)-5-(3-Fluorophenyl)-1,2,3,4-tetrahydro-2,2-dimethyl-4-methylidene-5H-chromeno[3,4-f]quinoline]
- GR Antagonist CV-1 Cells Efficacy (%) ([1]; Table 4): 81%
- pIC50 ([1]; dexamethasone at its EC50): 6.55
- pKi [2]: 6.67
- MR Antagonist CV-1 Cells Efficacy (%) ([3]; Table 4): 70%
- pIC50 ([3]; aldosterone at its EC50): 6.49

Compound: CC1=CC(C)(C)Nc2ccc3c(c21)C(c1cc(F)cc(Br)c1)Oc1ccccc1-3 (racemic) [Compound 351, (R/S)-5-(3-Bromo-5-Fluorophenyl)-1,2-dihydro-2,2,4-trimethyl-5H-chromeno[3,4-f]quinoline]
- melting point: 82 to 84 °C

Compound: CC1=CC(C)(C)Nc2c1cc1c(C(F)(F)F)cc(=O)[nH]c1c2C [Compound 255, 1,2-Dihydro-2,2,4,10-tetramethyl-6-trifluoromethyl-8-pyridono[5,6-g]quinoline]
- AR antagonist activity: suppression of testosterone-mediated increases in the weights of VP and SV [4]: exhibited AR antagonist activity

Compound: CC1=CC(C)(C)Nc2cc3oc(=O)cc(C(F)(F)C(F)(F)F)c3cc21 [Compound 256, 1,2-Dihydro-2,2,4-trimethyl-6-(1,1,2,2,2-pentafluoroethyl)-8-pyranono[5,6-g]quinoline]
- pEC50 [5]: < 5.00
- pIC50 [5]: 7.21
- AR Agonist CV-1 Cells Efficacy (%) ([5]; Table 2, agonist mode): na (na = not active (i.e. efficacy of <20 and potency of >10,000))
- AR Antagonist CV-1 Cells Efficacy (%) ([5]; Table 2): 91%
- AR Agonist CV-1 Cells Efficacy (%) ([5]; agonist mode): na (na = not active (i.e. efficacy of <20 and potency of >10,000))
- pEC50 [5, 7]: < 5.00
- pKi [6]: 5.35

Compound: CC1=CC(C)(C)Nc2cc3c(cc21)c(C(F)(F)F)cc(=O)n3C [Compound 261, 1,2-Dihydro-2,2,4,9-tetramethyl-6-trifluoromethyl-8-pyridono[5,6-g]quinoline]
- AR antagonist activity: suppression of testosterone-mediated increases in the weights of VP and SV [4]: exhibited AR antagonist activity

Compound: CC1=CC(C)(C)N(C)c2cc3oc(=O)cc(C(F)(F)F)c3cc21 [Compound 265, 1,2-Dihydro-1,2,2,4-tetramethyl-6-trifluoromethyl-8-pyranono[5,6-g]quinoline]
- pEC50 [5]: < 5.00
- pIC50 [5]: 7.25
- AR Agonist CV-1 Cells Efficacy (%) ([5]; Table 2, agonist mode): na (na = not active (i.e. efficacy of <20 and potency of >10,000))
- AR Antagonist CV-1 Cells Efficacy (%) ([5]; Table 2): 78%
- AR Agonist CV-1 Cells Efficacy (%) ([5]; agonist mode): na (na = not active (i.e. efficacy of <20 and potency of >10,000))
- pEC50 [5, 7]: < 5.00
- pKi [6]: 7.64
